Measurements published in PMC8617627, “Novel DYRK1A Inhibitor Rescues Learning and Memory Deficits in a Mouse Model of Down Syndrome” (Pharmaceuticals, 2021).
Where two headings read alike, the source gives them in different places.

Assays:
Assay in all cases: Kinase profile (33P ATP filter binding)
Type in all cases: biochemical
BRSK1 = molecular target: T1, BRSK1 (Homo sapiens, UniProt Q8TDC3); conditions: read-out: Remaining protein kinase activity
T1 sequence (Q8TDC3 1-778): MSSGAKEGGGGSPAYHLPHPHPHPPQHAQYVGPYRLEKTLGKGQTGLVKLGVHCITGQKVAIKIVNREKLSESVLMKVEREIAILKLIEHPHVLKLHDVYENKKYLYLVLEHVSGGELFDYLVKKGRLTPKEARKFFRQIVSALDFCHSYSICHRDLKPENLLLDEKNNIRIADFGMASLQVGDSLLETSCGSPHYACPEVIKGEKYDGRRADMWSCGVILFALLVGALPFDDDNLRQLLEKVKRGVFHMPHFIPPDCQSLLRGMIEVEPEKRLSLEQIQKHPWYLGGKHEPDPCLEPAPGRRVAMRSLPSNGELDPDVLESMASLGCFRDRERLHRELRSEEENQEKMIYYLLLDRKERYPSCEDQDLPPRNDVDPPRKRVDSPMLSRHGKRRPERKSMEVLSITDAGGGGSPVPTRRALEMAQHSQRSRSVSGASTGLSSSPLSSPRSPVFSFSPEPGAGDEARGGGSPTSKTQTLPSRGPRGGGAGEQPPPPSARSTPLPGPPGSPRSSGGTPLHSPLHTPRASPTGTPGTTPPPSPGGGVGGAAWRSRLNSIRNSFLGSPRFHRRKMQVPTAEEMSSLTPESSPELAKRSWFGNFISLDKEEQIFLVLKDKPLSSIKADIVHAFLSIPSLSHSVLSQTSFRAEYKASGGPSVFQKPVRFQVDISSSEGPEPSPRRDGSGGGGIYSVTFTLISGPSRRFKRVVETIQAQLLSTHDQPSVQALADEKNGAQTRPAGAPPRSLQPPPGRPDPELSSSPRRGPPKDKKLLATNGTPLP

NUAK1 = molecular target: T2, NUAK1 (Homo sapiens, UniProt O60285)
T2 sequence (O60285 1-661): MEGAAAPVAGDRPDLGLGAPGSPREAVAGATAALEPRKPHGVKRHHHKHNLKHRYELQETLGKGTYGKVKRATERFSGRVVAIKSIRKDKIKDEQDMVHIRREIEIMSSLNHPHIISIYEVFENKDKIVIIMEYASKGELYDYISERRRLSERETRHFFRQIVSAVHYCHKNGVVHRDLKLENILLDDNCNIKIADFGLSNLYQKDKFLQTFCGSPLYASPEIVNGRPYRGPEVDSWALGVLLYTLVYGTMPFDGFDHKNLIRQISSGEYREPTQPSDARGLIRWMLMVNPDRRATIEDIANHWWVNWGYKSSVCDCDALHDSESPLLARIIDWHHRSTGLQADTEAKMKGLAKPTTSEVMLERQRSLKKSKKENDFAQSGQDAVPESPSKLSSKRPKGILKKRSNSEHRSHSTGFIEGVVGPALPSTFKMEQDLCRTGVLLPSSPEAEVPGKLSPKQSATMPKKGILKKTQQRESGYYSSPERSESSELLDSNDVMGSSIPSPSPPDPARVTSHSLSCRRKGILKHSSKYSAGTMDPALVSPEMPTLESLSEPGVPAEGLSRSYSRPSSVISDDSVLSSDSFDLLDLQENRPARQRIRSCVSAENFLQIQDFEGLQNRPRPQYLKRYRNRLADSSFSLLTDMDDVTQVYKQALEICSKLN

PAK6 = PAK6 (Homo sapiens, UniProt Q9NQU5); conditions: read-out: Remaining protein kinase activity
JNK2 = JNK2 (Homo sapiens, UniProt P45984)
Src = Src (Homo sapiens, UniProt P12931); conditions: read-out: Remaining protein kinase activity
MST3 = MST3 (Homo sapiens, UniProt Q9Y6E0)
TrkA = TrkA (Homo sapiens, UniProt P04629); conditions: read-out: Remaining protein kinase activity
IR = IR (Homo sapiens, UniProt P06213); conditions: read-out: Remaining protein kinase activity
JAK2 = JAK2 (Homo sapiens, UniProt O60674)
MNK2 = MNK2 (Homo sapiens, UniProt Q9HBH9); conditions: read-out: Remaining protein kinase activity
CDK9-Cyclin T1 = CDK9-Cyclin T1 (Homo sapiens, UniProt P50750); conditions: read-out: Remaining protein kinase activity
NEK6 = NEK6 (Homo sapiens, UniProt Q9HC98); conditions: read-out: Remaining protein kinase activity
MKK2 = MKK2 (Homo sapiens, UniProt P36507); conditions: read-out: Remaining protein kinase activity

Chain of JAK2 (O60674 whole entry): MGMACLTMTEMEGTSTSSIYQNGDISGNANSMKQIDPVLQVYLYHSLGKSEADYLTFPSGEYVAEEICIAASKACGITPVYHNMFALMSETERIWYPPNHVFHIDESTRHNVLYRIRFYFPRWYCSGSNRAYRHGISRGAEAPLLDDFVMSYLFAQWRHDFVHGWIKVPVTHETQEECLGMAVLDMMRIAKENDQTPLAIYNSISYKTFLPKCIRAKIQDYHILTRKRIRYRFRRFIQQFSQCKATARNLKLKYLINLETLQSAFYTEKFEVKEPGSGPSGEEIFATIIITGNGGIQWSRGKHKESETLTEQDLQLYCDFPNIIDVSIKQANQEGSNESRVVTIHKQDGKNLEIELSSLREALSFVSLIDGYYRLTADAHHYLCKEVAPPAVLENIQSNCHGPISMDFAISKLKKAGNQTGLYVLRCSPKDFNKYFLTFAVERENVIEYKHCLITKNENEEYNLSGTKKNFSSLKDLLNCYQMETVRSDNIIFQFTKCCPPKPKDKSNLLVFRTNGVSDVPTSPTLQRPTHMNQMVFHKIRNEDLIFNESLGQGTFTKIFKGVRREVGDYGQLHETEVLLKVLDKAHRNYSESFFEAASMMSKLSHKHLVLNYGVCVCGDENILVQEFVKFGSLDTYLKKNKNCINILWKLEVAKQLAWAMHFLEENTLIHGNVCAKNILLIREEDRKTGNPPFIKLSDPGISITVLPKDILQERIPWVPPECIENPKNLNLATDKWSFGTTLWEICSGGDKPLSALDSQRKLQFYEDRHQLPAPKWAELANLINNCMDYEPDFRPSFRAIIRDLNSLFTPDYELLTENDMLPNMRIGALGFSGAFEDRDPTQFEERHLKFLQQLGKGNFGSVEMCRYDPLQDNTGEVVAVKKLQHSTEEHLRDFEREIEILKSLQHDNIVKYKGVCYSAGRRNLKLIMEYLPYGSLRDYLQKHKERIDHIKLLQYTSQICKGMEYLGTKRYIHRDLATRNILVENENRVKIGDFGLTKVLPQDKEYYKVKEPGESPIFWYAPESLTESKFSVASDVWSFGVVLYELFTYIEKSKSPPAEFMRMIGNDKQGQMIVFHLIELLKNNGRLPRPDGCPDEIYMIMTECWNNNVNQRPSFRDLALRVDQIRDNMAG
Chain of IR (P06213 28-1382): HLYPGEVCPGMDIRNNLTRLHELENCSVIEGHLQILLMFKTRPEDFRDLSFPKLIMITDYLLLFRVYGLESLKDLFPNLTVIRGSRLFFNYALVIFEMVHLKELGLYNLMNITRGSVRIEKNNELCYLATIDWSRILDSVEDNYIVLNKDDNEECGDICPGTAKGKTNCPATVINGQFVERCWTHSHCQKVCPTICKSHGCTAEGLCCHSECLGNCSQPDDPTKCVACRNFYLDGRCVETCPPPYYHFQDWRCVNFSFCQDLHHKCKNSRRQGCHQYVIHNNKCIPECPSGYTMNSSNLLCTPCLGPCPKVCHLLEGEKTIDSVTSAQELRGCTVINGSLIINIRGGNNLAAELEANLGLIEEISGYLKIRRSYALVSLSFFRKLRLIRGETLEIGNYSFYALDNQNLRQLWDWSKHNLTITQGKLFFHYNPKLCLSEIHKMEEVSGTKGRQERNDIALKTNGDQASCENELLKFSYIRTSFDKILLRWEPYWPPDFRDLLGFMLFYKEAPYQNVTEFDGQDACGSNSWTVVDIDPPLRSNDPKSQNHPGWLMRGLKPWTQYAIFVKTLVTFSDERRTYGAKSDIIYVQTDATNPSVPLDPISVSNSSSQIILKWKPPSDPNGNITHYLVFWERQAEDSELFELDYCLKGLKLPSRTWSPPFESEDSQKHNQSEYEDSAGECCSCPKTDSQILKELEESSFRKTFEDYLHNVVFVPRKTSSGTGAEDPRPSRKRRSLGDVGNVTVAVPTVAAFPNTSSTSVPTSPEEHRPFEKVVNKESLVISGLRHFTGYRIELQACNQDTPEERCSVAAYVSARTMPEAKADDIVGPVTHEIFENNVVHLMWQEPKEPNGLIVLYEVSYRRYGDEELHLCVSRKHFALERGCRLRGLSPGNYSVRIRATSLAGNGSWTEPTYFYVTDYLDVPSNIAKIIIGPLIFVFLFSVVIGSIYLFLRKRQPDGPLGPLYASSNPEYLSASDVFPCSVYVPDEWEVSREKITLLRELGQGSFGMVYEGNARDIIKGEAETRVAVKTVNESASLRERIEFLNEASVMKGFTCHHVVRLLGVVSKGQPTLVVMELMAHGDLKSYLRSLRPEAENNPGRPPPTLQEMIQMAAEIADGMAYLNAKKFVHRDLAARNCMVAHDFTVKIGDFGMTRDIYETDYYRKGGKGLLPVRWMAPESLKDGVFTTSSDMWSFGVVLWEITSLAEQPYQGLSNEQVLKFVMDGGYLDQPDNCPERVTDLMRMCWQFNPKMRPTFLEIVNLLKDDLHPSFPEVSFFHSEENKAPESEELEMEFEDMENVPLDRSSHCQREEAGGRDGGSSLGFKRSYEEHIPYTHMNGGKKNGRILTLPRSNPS
Chain of NEK6 (Q9HC98 whole entry): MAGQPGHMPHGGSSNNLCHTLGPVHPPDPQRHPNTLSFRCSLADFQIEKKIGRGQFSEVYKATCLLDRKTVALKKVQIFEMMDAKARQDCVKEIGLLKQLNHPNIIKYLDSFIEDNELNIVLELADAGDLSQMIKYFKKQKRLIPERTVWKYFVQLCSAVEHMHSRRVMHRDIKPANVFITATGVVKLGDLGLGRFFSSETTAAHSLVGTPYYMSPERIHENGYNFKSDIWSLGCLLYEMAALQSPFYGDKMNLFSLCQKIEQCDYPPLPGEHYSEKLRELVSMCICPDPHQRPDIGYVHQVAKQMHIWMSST
Chain of Src (P12931 whole entry): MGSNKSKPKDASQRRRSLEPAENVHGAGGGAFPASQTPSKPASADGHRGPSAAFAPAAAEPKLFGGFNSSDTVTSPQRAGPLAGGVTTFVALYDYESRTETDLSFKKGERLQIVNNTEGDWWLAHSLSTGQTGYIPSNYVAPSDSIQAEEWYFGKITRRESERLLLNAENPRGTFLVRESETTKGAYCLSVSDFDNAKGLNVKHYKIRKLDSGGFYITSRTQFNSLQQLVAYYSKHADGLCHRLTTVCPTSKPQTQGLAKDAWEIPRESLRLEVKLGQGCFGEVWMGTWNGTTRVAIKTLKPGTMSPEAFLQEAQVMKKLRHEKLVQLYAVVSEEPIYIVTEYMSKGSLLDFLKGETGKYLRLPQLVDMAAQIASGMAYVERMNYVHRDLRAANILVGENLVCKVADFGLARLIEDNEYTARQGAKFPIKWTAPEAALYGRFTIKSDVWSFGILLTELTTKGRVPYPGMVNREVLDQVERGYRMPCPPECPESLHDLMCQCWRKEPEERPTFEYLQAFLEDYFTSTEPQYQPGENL
Chain of MNK2 (Q9HBH9 whole entry): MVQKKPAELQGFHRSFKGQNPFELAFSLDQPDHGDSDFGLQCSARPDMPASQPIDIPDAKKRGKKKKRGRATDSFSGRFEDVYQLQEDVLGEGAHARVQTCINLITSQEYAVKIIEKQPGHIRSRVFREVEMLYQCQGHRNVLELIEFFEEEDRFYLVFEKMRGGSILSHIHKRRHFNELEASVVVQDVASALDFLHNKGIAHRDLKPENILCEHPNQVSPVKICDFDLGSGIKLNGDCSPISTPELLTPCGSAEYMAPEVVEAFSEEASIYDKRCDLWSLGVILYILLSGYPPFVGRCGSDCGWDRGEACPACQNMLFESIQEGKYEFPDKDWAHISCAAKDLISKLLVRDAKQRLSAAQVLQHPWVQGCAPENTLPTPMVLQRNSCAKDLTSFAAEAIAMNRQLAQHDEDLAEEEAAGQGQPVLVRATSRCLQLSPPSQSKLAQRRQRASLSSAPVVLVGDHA
Chain of MST3 (Q9Y6E0 whole entry): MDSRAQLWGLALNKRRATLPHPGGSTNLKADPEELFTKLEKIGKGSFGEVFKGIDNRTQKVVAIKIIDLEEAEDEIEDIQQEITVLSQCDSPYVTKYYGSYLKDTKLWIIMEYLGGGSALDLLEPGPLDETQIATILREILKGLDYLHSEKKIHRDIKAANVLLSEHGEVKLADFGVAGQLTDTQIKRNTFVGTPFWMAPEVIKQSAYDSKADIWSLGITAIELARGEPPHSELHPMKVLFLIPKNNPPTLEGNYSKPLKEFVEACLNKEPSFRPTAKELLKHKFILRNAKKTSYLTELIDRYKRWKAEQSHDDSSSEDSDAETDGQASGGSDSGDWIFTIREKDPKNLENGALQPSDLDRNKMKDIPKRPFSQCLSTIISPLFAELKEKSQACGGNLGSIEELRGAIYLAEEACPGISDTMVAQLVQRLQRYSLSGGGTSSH
Chain of PAK6 (Q9NQU5 whole entry): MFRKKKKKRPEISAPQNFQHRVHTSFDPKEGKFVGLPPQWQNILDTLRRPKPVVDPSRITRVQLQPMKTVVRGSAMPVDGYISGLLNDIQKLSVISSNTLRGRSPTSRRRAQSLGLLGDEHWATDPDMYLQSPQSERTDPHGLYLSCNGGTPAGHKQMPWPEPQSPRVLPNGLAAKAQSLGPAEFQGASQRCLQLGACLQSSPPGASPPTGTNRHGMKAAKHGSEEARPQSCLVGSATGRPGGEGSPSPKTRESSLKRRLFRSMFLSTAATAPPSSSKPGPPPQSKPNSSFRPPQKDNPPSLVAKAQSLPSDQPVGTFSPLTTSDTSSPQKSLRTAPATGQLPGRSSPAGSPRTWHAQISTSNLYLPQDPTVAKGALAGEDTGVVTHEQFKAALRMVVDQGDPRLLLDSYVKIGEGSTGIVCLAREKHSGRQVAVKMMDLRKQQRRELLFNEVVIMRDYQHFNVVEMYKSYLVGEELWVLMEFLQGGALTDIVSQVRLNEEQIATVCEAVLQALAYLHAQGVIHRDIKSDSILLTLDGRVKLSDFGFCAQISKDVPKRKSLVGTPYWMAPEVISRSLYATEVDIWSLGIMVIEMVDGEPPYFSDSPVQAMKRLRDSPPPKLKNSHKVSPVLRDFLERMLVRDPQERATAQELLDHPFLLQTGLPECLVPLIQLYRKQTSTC

Compound: COc1ccc2sc(-c3cncc(NC(C)=O)c3)nc2c1 [PST-001, N-(5-(5-Methoxybenzo[d]thiazol-2-yl)pyridin-3-yl)acetamide]
- remaining activity at 1 µM (BRSK1): 114%
- remaining activity at 100 µM (BRSK1): 111%
- Remaining protein kinase activity (NUAK1; 1 μM): 130%
- remaining activity at 1 µM (PAK6): 112%
- remaining activity at 100 µM (PAK6): 113%
- Remaining protein kinase activity (JNK2; 1 μM): 126%
- Remaining protein kinase activity (JNK2; 100 μM): 129%
- remaining activity at 1 µM (Src): 100%
- remaining activity at 100 µM (Src): 106%
- Remaining protein kinase activity (MST3; 1 μM): 118%
- Remaining protein kinase activity (MST3; 100 μM): 113%
- remaining activity at 1 µM (TrkA): 111%
- remaining activity at 100 µM (TrkA): 45%
- remaining activity at 1 µM (IR): 116%
- remaining activity at 100 µM (IR): 120%
- Remaining protein kinase activity (JAK2; 1 μM): 123%
- Remaining protein kinase activity (JAK2; 100 μM): 125%
- remaining activity at 1 µM (MNK2): 106%
- remaining activity at 100 µM (MNK2): 66%
- remaining activity at 1 µM (CDK9-Cyclin T1): 122%
- remaining activity at 100 µM (CDK9-Cyclin T1): 120%
- remaining activity at 1 µM (NEK6): 112%
- remaining activity at 100 µM (NEK6): 113%
- remaining activity at 1 µM (MKK2): 75%
- remaining activity at 100 µM (MKK2): 100%

Compound: COc1ccc2sc(-c3cncc(N)c3)nc2c1 [compound 1, 5-(5-Methoxybenzo[d]thiazol-2-yl)pyridin-3-amine]
- remaining activity at 1 µM (BRSK1; BRSK1, 1 μM): 115%
- remaining activity at 100 µM (BRSK1; BRSK1, 100 μM): 37%
- Remaining protein kinase activity (NUAK1; 1 μM): 112%
- Remaining protein kinase activity (NUAK1; 100 μM): 35%
- remaining activity at 1 µM (PAK6; PAK6, 1 μM): 108%
- remaining activity at 100 µM (PAK6; PAK6, 100 μM): 80%
- Remaining protein kinase activity (JNK2; 1 μM): 123%
- Remaining protein kinase activity (JNK2; 100 μM): 104%
- remaining activity at 1 µM (Src; Src, 1 μM): 123%
- remaining activity at 100 µM (Src; Src, 100 μM): 42%
- Remaining protein kinase activity (MST3; 1 μM): 114%
- Remaining protein kinase activity (MST3; 100 μM): 96%
- remaining activity at 1 µM (TrkA; TrkA, 1 μM): 104%
- remaining activity at 100 µM (TrkA; TrkA, 100 μM): 33%
- remaining activity at 1 µM (IR; IR, 1 μM): 108%
- remaining activity at 100 µM (IR; IR, 100 μM): 45%
- Remaining protein kinase activity (JAK2; 1 μM): 117%
- Remaining protein kinase activity (JAK2; 100 μM): 55%
- remaining activity at 1 µM (MNK2; MNK2, 1 μM): 90%
- remaining activity at 100 µM (MNK2; MNK2, 100 μM): 27%
- remaining activity at 1 µM (CDK9-Cyclin T1; CDK9-Cyclin T1, 1 μM): 113%
- remaining activity at 100 µM (CDK9-Cyclin T1; CDK9-Cyclin T1, 100 μM): 83%
- remaining activity at 1 µM (NEK6; NEK6, 1 μM): 106%
- remaining activity at 100 µM (NEK6; NEK6, 100 μM): 115%
- remaining activity at 1 µM (MKK2; MKK2, 1 μM): 81%
- remaining activity at 100 µM (MKK2; MKK2, 100 μM): 62%
